From US8846698B2, “Pyrrolo[2,3-d]pyrimidine tropomysin-related kinase inhibitors” (Pfizer Limited, priority 2011, dated 2014)

Target: TRKA (Homo sapiens (Human), UniProt P04629)
Assay: Isolated TRK enzyme assay (HTRF KinEASE-TK), TRKA
Type: biochemical
Settings: read-out: Trka enzyme (IC50)

Chain of TRKA (P04629 441-796): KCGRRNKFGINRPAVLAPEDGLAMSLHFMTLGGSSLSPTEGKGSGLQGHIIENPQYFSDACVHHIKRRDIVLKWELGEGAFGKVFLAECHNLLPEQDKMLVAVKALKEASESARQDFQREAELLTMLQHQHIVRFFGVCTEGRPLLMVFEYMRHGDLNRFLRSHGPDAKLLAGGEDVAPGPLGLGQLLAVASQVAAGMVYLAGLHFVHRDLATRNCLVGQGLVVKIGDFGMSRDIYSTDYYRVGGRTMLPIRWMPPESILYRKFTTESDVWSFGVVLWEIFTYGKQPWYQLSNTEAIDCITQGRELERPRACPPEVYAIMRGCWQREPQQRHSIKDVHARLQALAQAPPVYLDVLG

| IC50 | SMILES |
| --- | --- |
| 31.2 nM | CC(C)c1csc(C(=O)Nc2cncc(C(=O)c3cn(C(C)C)c4ncncc34)c2)n1 [Example 438, 4-Isopropyl-thiazole-2-carboxylic acid [5-(7-isopropyl-7H-pyrrolo[2,3-d]pyrimidine-5-carbonyl)-pyridin-3-yl]-amide] |
| 22.5 nM | Cc1coc2cnc(C(=O)Nc3cncc(C(=O)c4cn(C(C)C)c5ncncc45)c3)cc12 [Example 439, 3-Methyl-furo[2,3-c]pyridine-5-carboxylic acid [5-(7-isopropyl-7H-pyrrolo[2,3-d]pyrimidine-5-carbonyl)-pyridin-3-yl]-amide] |
| 8390 nM | CC(C)n1cc(C(=O)c2cncc(NC(=O)c3c(C(F)(F)F)nn(C)c3Cl)c2)c2cncnc21 [Example 441, 5-Chloro-1-methyl-3-trifluoromethyl-1H-pyrazole-4-carboxylic acid [5-(7-isopropyl-7H-pyrrolo[2,3-d]pyrimidine-5-carbonyl)-pyridin-3-yl]-amide] |
| 36.6 nM | COc1ccc2[nH]c(C(=O)Nc3cncc(C(=O)c4cn(C(C)C)c5ncncc45)c3)nc2c1 [Example 442, 5-Methoxy-1H-benzimidazole-2-carboxylic acid [5-(7-isopropyl-7H-pyrrolo[2,3-d]pyrimidine-5-carbonyl)-pyridin-3-yl]amide] |
| 47.7 nM | Cc1c(Cl)c(C(=O)Nc2cncc(C(=O)c3cn(C(C)C)c4ncncc34)c2)nn1C [Example 443, 4-Chloro-1,5-dimethyl-1H-pyrazole-3-carboxylic acid [5-(7-isopropyl-7H-pyrrolo[2,3-d]pyrimidine-5-carbonyl)-pyridin-3-yl]amide] |
| 496 nM | CC(C)n1cc(C(=O)c2cncc(NC(=O)c3nccc4[nH]ccc34)c2)c2cncnc21 [Example 444, 1H-Pyrrolo[3,2-c]pyridine-4-carboxylic acid [5-(7-isopropyl-7H-pyrrolo[2,3-d]pyrimidine-5-carbonyl)-pyridin-3-yl]amide] |
| 5.51 nM | CCc1ccnc(C(=O)Nc2cncc(C(=O)c3cn(C(C)C)c4ncncc34)c2)c1 [Example 445, 4-Ethyl-pyridine-2-carboxylic acid [5-(7-isopropyl-7H-pyrrolo[2,3-d]pyrimidine-5-carbonyl)-pyridin-3-yl]-amide] |
| 812 nM | CC(C)n1cc(C(=O)c2cncc(NC(=O)c3cnc4c(c3)OCCO4)c2)c2cncnc21 [Example 446, 2,3-Dihydro-1,4-dioxino[2,3-b]pyridine-7-carboxylic acid [5-(7-isopropyl-7H-pyrrolo[2,3-d]pyrimidine-5-carbonyl)-pyridin-3-yl]-amide] |
| 919 nM | CC(C)n1cc(C(=O)c2cncc(NC(=O)c3ccc4[nH]ccc4n3)c2)c2cncnc21 [Example 447, 1H-Pyrrolo[3,2-b]pyridine-5-carboxylic acid [5-(7-isopropyl-7H-pyrrolo[2,3-d]pyrimidine-5-carbonyl)-pyridin-3-yl]amide] |
| 272 nM | CC(C)n1cc(C(=O)c2cncc(NC(=O)c3ccn4nccc4c3)c2)c2cncnc21 [Example 448, Pyrazolo[1,5-a]pyridine-5-carboxylic acid [5-(7-isopropyl-7H-pyrrolo[2,3-d]pyrimidine-5-carbonyl)-pyridin-3-yl]-amide] |
| 155 nM | COc1ccc2ncc(C(=O)Nc3cncc(C(=O)c4cn(C(C)C)c5ncncc45)c3)cc2c1 [Example 449, 6-Methoxy-quinoline-3-carboxylic acid [5-(7-isopropyl-7H-pyrrolo[2,3-d]pyrimidine-5-carbonyl)-pyridin-3-yl]-amide] |
| 3150 nM | Cc1cc(C(=O)Nc2cncc(C(=O)c3cn(C(C)C)c4ncncc34)c2)n(CC(F)(F)F)n1 [Example 450, 5-Methyl-2-(2,2,2-trifluoro-ethyl)-2H-pyrazole-3-carboxylic acid [5-(7-isopropyl-7H-pyrrolo[2,3-d]pyrimidine-5-carbonyl)-pyridin-3-yl]-amide] |
| 7170 nM | CC(C)n1cc(C(=O)c2cncc(NC(=O)c3cnccc3C(F)(F)F)c2)c2cncnc21 [Example 451, N-[5-(7-Isopropyl-7H-pyrrolo[2,3-d]pyrimidine-5-carbonyl)-pyridin-3-yl]-4-trifluoromethyl-nicotinamide] |
| 542 nM | CC(C)n1cc(C(=O)c2cncc(NC(=O)c3cnn(CCC#N)c3)c2)c2cncnc21 [Example 452, 1-(2-Cyano-ethyl)-1H-pyrazole-4-carboxylic acid [5-(7-isopropyl-7H-pyrrolo[2,3-d]pyrimidine-5-carbonyl)-pyridin-3-yl]amide] |
| 634 nM | CC(C)n1cc(C(=O)c2cncc(NC(=O)c3cc4cnccc4o3)c2)c2cncnc21 [Example 453, Furo[3,2-c]pyridine-2-carboxylic acid [5-(7-isopropyl-7H-pyrrolo[2,3-d]pyrimidine-5-carbonyl)-pyridin-3-yl]-amide] |
| 633 nM | CC(C)n1cc(C(=O)c2cncc(NC(=O)c3cc4cnccc4[nH]3)c2)c2cncnc21 [Example 454, 1H-Pyrrolo[3,2-c]pyridine-2-carboxylic acid [5-(7-isopropyl-7H-pyrrolo[2,3-d]pyrimidine-5-carbonyl)-pyridin-3-yl]-amide] |

| IC50 | SMILES |
| --- | --- |
| 1070 nM | CC(C)n1cc(C(=O)c2cncc(NC(=O)c3cc4occc4cn3)c2)c2cncnc21 [Example 455, Furo[3,2-c]pyridine-6-carboxylic acid [5-(7-isopropyl-7H-pyrrolo[2,3-d]pyrimidine-5-carbonyl)-pyridin-3-yl]-amide] |
| 6960 nM | Cc1nc(C)c(C(=O)Nc2cncc(C(=O)c3cn(C(C)C)c4ncncc34)c2)o1 [Example 456, 2,4-Dimethyl-oxazole-5-carboxylic acid [5-(7-isopropyl-7H-pyrrolo[2,3-d]pyrimidine-5-carbonyl)-pyridin-3-yl]-amide] |
| 674 nM | CC(C)n1cc(C(=O)c2cncc(NC(=O)c3cn(C)c4cnccc34)c2)c2cncnc21 [Example 457, 1-Methyl-1H-pyrrolo[2,3-c]pyridine-3-carboxylic acid [5-(7-isopropyl-7H-pyrrolo[2,3-d]pyrimidine-5-carbonyl)-pyridin-3-yl]-amide] |
| 213 nM | CC(C)n1cc(C(=O)c2cncc(NC(=O)c3cc4n(n3)CCC4)c2)c2cncnc21 [Example 458, 5,6-Dihydro-4H-pyrrolo[1,2-b]pyrazole-2-carboxylic acid [5-(7-isopropyl-7H-pyrrolo[2,3-d]pyrimidine-5-carbonyl)-pyridin-3-yl]-amide] |
| 4.06 nM | CC(C)n1cc(C(=O)c2cncc(NC(=O)c3csc(C4CCC4)n3)c2)c2cncnc21 [Example 459, 2-Cyclobutyl-thiazole-4-carboxylic acid [5-(7-isopropyl-7H-pyrrolo[2,3-d]pyrimidine-5-carbonyl)-pyridin-3-yl]-amide] |
| 9800 nM | CC(C)n1cc(C(=O)c2cncc(NC(=O)c3ccncc3F)c2)c2cncnc21 [Example 460, 3-Fluoro-N-[5-(7-isopropyl-7H-pyrrolo[2,3-d]pyrimidine-5-carbonyl)-pyridin-3-yl]-isonicotinamide] |
| 9800 nM | Cc1nc2ncccn2c1C(=O)Nc1cncc(C(=O)c2cn(C(C)C)c3ncncc23)c1 [Example 461, 2-Methyl-imidazo[1,2-a]pyrimidine-3-carboxylic acid [5-(7-isopropyl-7H-pyrrolo[2,3-d]pyrimidine-5-carbonyl)-pyridin-3-yl]-amide] |
| 1320 nM | Cc1cc(C(=O)Nc2cncc(C(=O)c3cn(C(C)C)c4ncncc34)c2)no1 [Example 462, 5-Methyl-isoxazole-3-carboxylic acid [5-(7-isopropyl-7H-pyrrolo[2,3-d]pyrimidine-5-carbonyl)-pyridin-3-yl]-amide] |
| 186 nM | COc1cc(OC)nc(C(=O)Nc2cncc(C(=O)c3cn(C(C)C)c4ncncc34)c2)n1 [Example 463, 4,6-Dimethoxy-pyrimidine-2-carboxylic acid [5-(7-isopropyl-7H-pyrrolo[2,3-d]pyrimidine-5-carbonyl)-pyridin-3-yl]-amide] |
| 3010 nM | Cc1cncc(C(=O)Nc2cncc(C(=O)c3cn(C(C)C)c4ncncc34)c2)n1 [Example 464, 6-Methyl-pyrazine-2-carboxylic acid[5-(7-isopropyl-7H-pyrrolo[2,3-d]pyrimidine-5-carbonyl)-pyridin-3-yl]-amide] |
| 2130 nM | CC(C)n1cc(C(=O)c2cncc(NC(=O)c3cn(C)cn3)c2)c2cncnc21 [Example 465, 1-Methyl-1H-imidazole-4-carboxylic acid [5-(7-isopropyl-7H-pyrrolo[2,3-d]pyrimidine-5-carbonyl)-pyridin-3-yl]-amide] |
| 538 nM | CC(C)n1cc(C(=O)c2cncc(NC(=O)c3ccc4cccnc4n3)c2)c2cncnc21 [Example 467, 1,8-Naphthyridine-2-carboxylic acid[5-(7-isopropyl-7H-pyrrolo[2,3-d]pyrimidine-5-carbonyl)-pyridin-3-yl]-amide] |
| 5100 nM | CC(C)n1cc(C(=O)c2cncc(NC(=O)c3nccn3C)c2)c2cncnc21 [Example 468, 1-Methyl-1H-imidazole-2-carboxylic acid [5-(7-isopropyl-7H-pyrrolo[2,3-d]pyrimidine-5-carbonyl)-pyridin-3-yl]-amide] |
| 523 nM | COCc1cc(C(=O)Nc2cncc(C(=O)c3cn(C(C)C)c4ncncc34)c2)no1 [Example 469, 5-Methoxymethyl-isoxazole-3-carboxylic acid [5-(7-isopropyl-7H-pyrrolo[2,3-d]pyrimidine-5-carbonyl)-pyridin-3-yl]-amide] |
| 166 nM | CC(C)n1cc(C(=O)c2cncc(NC(=O)c3nncc4ccccc34)c2)c2cncnc21 [Example 470, Phthalazine-1-carboxylic acid [5-(7-isopropyl-7H-pyrrolo[2,3-d]pyrimidine-5-carbonyl)-pyridin-3-yl]-amide] |

| SMILES | IC50 |
| --- | --- |
| Cc1cccc(C(=O)Nc2cncc(C(=O)c3cn(C(C)C)c4ncncc34)c2)n1 [Example 440, 6-Methyl-pyridine-2-carboxylic acid[5-(7-isopropyl-7H-pyrrolo[2,3-d]pyrimidine-5-carbonyl)-pyridin-3-yl]-amide] | 676 nM |
| CC(C)n1cc(C(=O)c2cncc(NC(=O)c3ccc(Cl)cn3)c2)c2cncnc21 [Example 466, 5-Chloro-pyridine-2-carboxylic acid[5-(7-isopropyl-7H-pyrrolo[2,3-d]pyrimidine-5-carbonyl)-pyridin-3-yl]-amide] | 400 nM |
